Source: patent US10377791B2, “Therapeutically active estratrienthiazole derivatives as inhibitors of 17 B-hydroxysteroid dehydrogenase, type 1” (FORENDO PHARMA LTD, priority 2013, dated 2019)

Legend:
[1] = molecular target: T1, recombinant human 17β-HSD1 (Homo sapiens, UniProt P14061); experiment: Inhibition of recombinant human 17β-HSD1; format: biochemical; conditions: inhibitor at 1 μM; 30 nM estrone, 1 mM NADPH, 30 min at RT; read-out: 17β-HDS1 Inhibition % at 1 μM
T1 construct: made in house; host or cells: Sd9 (Sf9) insect cells, baculovirus (Bac to Bac Expression System)
T1 sequence (P14061 1-328): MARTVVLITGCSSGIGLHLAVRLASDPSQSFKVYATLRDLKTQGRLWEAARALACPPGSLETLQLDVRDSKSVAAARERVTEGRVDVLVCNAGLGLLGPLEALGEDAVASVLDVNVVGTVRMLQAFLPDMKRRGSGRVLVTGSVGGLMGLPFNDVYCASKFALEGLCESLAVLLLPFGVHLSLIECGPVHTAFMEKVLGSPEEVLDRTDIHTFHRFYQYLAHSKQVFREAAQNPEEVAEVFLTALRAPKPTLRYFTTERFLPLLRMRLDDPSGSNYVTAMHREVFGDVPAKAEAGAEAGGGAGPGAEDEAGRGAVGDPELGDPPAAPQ
Method in brief: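 Microsomal enzyme from baculovirus-infected insect cells (1 μg/ml) incubated 30 min at RT in 20 mM KH2PO4 pH 7.4 with 30 nM ³H-estrone and 1 mM NADPH, inhibitor at 1 μM or 0.1 μM, 1% DMSO. TCA-stopped; estrone/estradiol separated by radio-HPLC; % inhibition = 100 − % conversion.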

[2] = molecular target: T2, recombinant human 17β-HSD2 (Homo sapiens, UniProt P37059); experiment: Inhibition of recombinant human 17β-HSD2; format: biochemical; conditions: inhibitor at 1 μM; 50 nM estradiol, 1 mM NADH, 30 min at RT; read-out: 17β-HSD2 Inhibition % at 1 μM
T2 construct: made in house; host or cells: Sd9 (Sf9) insect cells, baculovirus (Bac to Bac Expression System)
T2 sequence (P37059 1-387): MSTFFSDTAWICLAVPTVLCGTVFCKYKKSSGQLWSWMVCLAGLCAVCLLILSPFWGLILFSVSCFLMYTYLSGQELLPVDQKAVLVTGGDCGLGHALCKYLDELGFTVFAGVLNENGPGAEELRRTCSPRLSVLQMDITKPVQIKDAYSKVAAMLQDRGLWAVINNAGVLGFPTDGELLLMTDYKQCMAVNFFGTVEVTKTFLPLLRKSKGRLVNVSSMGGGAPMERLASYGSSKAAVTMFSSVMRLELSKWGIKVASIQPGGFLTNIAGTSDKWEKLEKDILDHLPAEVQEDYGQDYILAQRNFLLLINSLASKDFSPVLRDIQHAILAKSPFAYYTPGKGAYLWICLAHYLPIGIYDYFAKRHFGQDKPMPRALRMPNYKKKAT
Method in brief: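 Membrane extract of baculovirus-expressed enzyme in Sf9 cells (4 μg/ml) incubated in 20 mM KH2PO4 pH 8.5 with 50 nM estradiol (³H-tracer) and 1 mM NADH, 30 min at RT, 1% DMSO, inhibitor at 1 μM or 0.1 μM. TCA-stopped; estradiol-to-estrone conversion by radio-HPLC; % inhibition = 100 − % conversion.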

Row | SMILES | inhibition at 1 µM [1] | inhibition at 1 µM [2]
1 | Cc1cnc(NC(=O)CC[C@@H]2CC(=O)[C@@]3(C)CCC4c5cc(Br)c(O)cc5CCC4C23)s1 (stereo partly drawn) [Compound 56, 3-((13S,15R)-2-bromo-3-hydroxy-13-methyl-17-oxo-7,8,9,11,12,13,14,15,16,17-decahydro-6H-cyclopenta[a]phenanthren-15-yl)-N-(5-methylthiazol-2-yl)propanamide] | 93% | 18%
2 | Cc1cnc(NC(=O)CC[C@@H]2CC(=O)[C@@]3(C)CCC4c5ccc(O)c(Br)c5CCC4C23)s1 (stereo partly drawn) [Compound 57, 3-((13S,15R)-4-bromo-3-hydroxy-13-methyl-17-oxo-7,8,9,11,12,13,14,15,16,17-decahydro-6H-cyclopenta[a]phenanthren-15-yl)-N-(5-methylthiazol-2-yl)propanamide] | 92% | 16%
3 | Cc1cnc(NC(=O)CC[C@@H]2C(Br)C(=O)[C@@]3(C)CCC4c5cc(Br)c(O)c(Br)c5CCC4C23)s1 (stereo partly drawn) [Compound 59, N-(5-methylthiazol-2-yl)-3-((13S,15S)-2,4,16-tribromo-3-hydroxy-13-methyl-17-oxo-7,8,9,11,12,13,14,15,16,17-decahydro-6H-cyclopenta[a]phenanthren-15-yl)propanamide] | 79% | 2%
4 | Cc1cnc(NC(=O)CC[C@@H]2CC(=O)[C@@]3(C)CCC4c5ccc(O)c(Cl)c5CCC4C23)s1 (stereo partly drawn) [Compound 63, 3-((13S,15R)-4-chloro-3-hydroxy-13-methyl-17-oxo-7,8,9,11,12,13,14,15,16,17-decahydro-6H-cyclopenta[a]phenanthren-15-yl)-N-(5-methylthiazol-2-yl)propanamide] | 99% | 21%
5 | Cc1cnc(NC(=O)CC[C@@H]2CC(=O)[C@@]3(C)CCC4c5cc(Cl)c(O)cc5CCC4C23)s1 (stereo partly drawn) [Compound 64, 3-((13S,15R)-2-chloro-3-hydroxy-13-methyl-17-oxo-7,8,9,11,12,13,14,15,16,17-decahydro-6H-cyclopenta[a]phenanthren-15-yl)-N-(5-methylthiazol-2-yl)propanamide] | 98% | 5%
6 | Cc1cnc(NC(=O)CC[C@@H]2CC(=O)[C@@]3(C)CCC4c5ccc(O)c(F)c5CCC4C23)s1 (stereo partly drawn) [Compound 66, 3-((13S,15R)-4-fluoro-3-hydroxy-13-methyl-17-oxo-7,8,9,11,12,13,14,15,16,17-decahydro-6H-cyclopenta[a]phenanthren-15-yl)-N-(5-methylthiazol-2-yl)propanamide] | 98% | 8%
7 | Cc1cnc(NC(=O)CC[C@@H]2CC(=O)[C@@]3(C)CCC4c5cc(F)c(O)cc5CCC4C23)s1 (stereo partly drawn) [Compound 67, 3-((13S,15R)-2-fluoro-3-hydroxy-13-methyl-17-oxo-7,8,9,11,12,13,14,15,16,17-decahydro-6H-cyclopenta[a]phenanthren-15-yl)-N-(5-methylthiazol-2-yl)propanamide] | 98% | 6%
8 | Cc1cnc(NC(=O)CC[C@@H]2CC(=O)[C@@]3(C)CCC4c5cc(O)c(O)cc5CCC4C23)s1 (stereo partly drawn) [Compound 68, 3-((13S,15R)-2,3-dihydroxy-13-methyl-17-oxo-7,8,9,11,12,13,14,15,16,17-decahydro-6H-cyclopenta[a]phenanthren-15-yl)-N-(5-methylthiazol-2-yl)propanamide] | 88% | 3%
9 | CC(=O)Oc1cc2c(cc1F)C1CC[C@]3(C)C(=O)C[C@@H](CCC(=O)Nc4ncc(C)s4)C3C1CC2 (stereo partly drawn) [Compound 69, (13S,15R)-2-fluoro-13-methyl-15-(3-((5-methylthiazol-2-yl)amino)-3-oxopropyl)-17-oxo-7,8,9,11,12,13,14,15,16,17-decahydro-6H-cyclopenta[a]phenanthren-3-yl acetate] | 57% | 4%
10 | Cc1cnc(NC(=O)CC[C@@H]2CC(=O)[C@@]3(C)CCC4c5cc(Br)c(O)c(F)c5CCC4C23)s1 (stereo partly drawn) [Compound 71, 3-((13S,15R)-2-bromo-4-fluoro-3-hydroxy-13-methyl-17-oxo-7,8,9,11,12,13,14,15,16,17-decahydro-6H-cyclopenta[a]phenanthren-15-yl)-N-(5-methylthiazol-2-yl)propanamide] | 91% | 7%
11 | Cc1cnc(NC(=O)CC[C@@H]2CC(=O)[C@@]3(C)CCC4c5cc(F)c(O)c(Br)c5CCC4C23)s1 (stereo partly drawn) [Compound 72, 3-((13S,15R)-4-bromo-2-fluoro-3-hydroxy-13-methyl-17-oxo-7,8,9,11,12,13,14,15,16,17-decahydro-6H-cyclopenta[a]phenanthren-15-yl)-N-(5-methylthiazol-2-yl)propanamide] | 89% | 10%
12 | Cc1cnc(NC(=O)CC[C@@H]2CC(=O)[C@@]3(C)CCC4c5cc([N+](=O)[O-])c(O)c(F)c5CCC4C23)s1 (stereo partly drawn) [Compound 73, 3-((13S,15R)-4-fluoro-3-hydroxy-13-methyl-2-nitro-17-oxo-7,8,9,11,12,13,14,15,16,17-decahydro-6H-cyclopenta[a]phenanthren-15-yl)-N-(5-methylthiazol-2-yl)propanamide] | 90% | 2%
13 | Cc1cnc(NC(=O)CC[C@@H]2CC(=O)[C@@]3(C)CCC4c5cc([N+](=O)[O-])c(O)c(Cl)c5CCC4C23)s1 (stereo partly drawn) [Compound 75, 3-((13S,15R)-4-chloro-3-hydroxy-13-methyl-2-nitro-17-oxo-7,8,9,11,12,13,14,15,16,17-decahydro-6H-cyclopenta[a]phenanthren-15-yl)-N-(5-methylthiazol-2-yl)propanamide] | 89% | 2%
14 | Cc1cnc(NC(=O)CC[C@@H]2CC(=O)[C@@]3(C)CCC4c5cc6ncoc6c(Cl)c5CCC4C23)s1 (stereo partly drawn) [Compound 77, 3-((3R,12aS)-6-chloro-12a-methyl-1-oxo-2,3,3a,3b,4,5,10b,11,12,12a-decahydro-1H-cyclopenta[7,8]phenanthro[3,2-d]oxazol-3-yl)-N-(5-methylthiazol-2-yl)propanamide] | 87% | 0%
15 | Cc1cnc(NC(=O)CC[C@@H]2CC(=O)[C@@]3(C)CCC4c5cc6ncoc6c(F)c5CCC4C23)s1 (stereo partly drawn) [Compound 78, 3-((3R,12aS)-6-fluoro-12a-methyl-1-oxo-2,3,3a,3b,4,5,10b,11,12,12a-decahydro-1H-cyclopenta[7,8]phenanthro[3,2-d]oxazol-3-yl)-N-(5-methylthiazol-2-yl)propanamide] | 91% | 1%
16 | Cc1cnc(NC(=O)CC[C@@H]2CC(=O)[C@@]3(C)CCC4c5ccc(OS(=O)(=O)C(F)(F)F)cc5CCC4C23)s1 (stereo partly drawn) [Compound 79, (13S,15R)-13-methyl-15-(3-((5-methylthiazol-2-yl)amino)-3-oxopropyl)-17-oxo-7,8,9,11,12,13,14,15,16,17-decahydro-6H-cyclopenta[a]phenanthren-3-yl trifluoromethanesulfonate] | 72% | 0%
17 | Cc1cnc(NC(=O)CC[C@@H]2CC(=O)[C@@]3(C)CCC4c5cc([N+](=O)[O-])ccc5CCC4C23)s1 (stereo partly drawn) [Compound 84, 3-((13S,15R)-13-methyl-2-nitro-17-oxo-7,8,9,11,12,13,14,15,16,17-decahydro-6H-cyclopenta[a]phenanthren-15-yl)-N-(5-methylthiazol-2-yl)propanamide] | 93% | 1%
18 | Cc1cnc(NC(=O)CC[C@@H]2CC(=O)[C@@]3(C)CCC4c5cccc([N+](=O)[O-])c5CCC4C23)s1 (stereo partly drawn) [Compound 85, 3-((13S,15R)-13-methyl-4-nitro-17-oxo-7,8,9,11,12,13,14,15,16,17-decahydro-6H-cyclopenta[a]phenanthren-15-yl)-N-(5-methylthiazol-2-yl)propanamide] | 93% | 2%
19 | Cc1cnc(NC(=O)CC[C@@H]2CC(=O)[C@@]3(C)CCC4c5cc(F)ccc5CCC4C23)s1 (stereo partly drawn) [Compound 86, 3-((13S,15R)-2-fluoro-13-methyl-17-oxo-7,8,9,11,12,13,14,15,16,17-decahydro-6H-cyclopenta[a]phenanthren-15-yl)-N-(5-methylthiazol-2-yl)propanamide] | 92% | 0%
